Results: ChEMBL document CHEMBL5120930, “Discovery of Benzylpiperazine Derivatives as CNS-Penetrant and Selective Histone Deacetylase 6 Inhibitors” (ACS Med Chem Lett, 2022)
Activity calls are given as the source filed them. The rule behind the calls is not given here.

Target: T1, Protein deacetylase HDAC6 (Mus musculus, UniProt Q9Z2V5)
T1 sequence (Q9Z2V5 whole entry): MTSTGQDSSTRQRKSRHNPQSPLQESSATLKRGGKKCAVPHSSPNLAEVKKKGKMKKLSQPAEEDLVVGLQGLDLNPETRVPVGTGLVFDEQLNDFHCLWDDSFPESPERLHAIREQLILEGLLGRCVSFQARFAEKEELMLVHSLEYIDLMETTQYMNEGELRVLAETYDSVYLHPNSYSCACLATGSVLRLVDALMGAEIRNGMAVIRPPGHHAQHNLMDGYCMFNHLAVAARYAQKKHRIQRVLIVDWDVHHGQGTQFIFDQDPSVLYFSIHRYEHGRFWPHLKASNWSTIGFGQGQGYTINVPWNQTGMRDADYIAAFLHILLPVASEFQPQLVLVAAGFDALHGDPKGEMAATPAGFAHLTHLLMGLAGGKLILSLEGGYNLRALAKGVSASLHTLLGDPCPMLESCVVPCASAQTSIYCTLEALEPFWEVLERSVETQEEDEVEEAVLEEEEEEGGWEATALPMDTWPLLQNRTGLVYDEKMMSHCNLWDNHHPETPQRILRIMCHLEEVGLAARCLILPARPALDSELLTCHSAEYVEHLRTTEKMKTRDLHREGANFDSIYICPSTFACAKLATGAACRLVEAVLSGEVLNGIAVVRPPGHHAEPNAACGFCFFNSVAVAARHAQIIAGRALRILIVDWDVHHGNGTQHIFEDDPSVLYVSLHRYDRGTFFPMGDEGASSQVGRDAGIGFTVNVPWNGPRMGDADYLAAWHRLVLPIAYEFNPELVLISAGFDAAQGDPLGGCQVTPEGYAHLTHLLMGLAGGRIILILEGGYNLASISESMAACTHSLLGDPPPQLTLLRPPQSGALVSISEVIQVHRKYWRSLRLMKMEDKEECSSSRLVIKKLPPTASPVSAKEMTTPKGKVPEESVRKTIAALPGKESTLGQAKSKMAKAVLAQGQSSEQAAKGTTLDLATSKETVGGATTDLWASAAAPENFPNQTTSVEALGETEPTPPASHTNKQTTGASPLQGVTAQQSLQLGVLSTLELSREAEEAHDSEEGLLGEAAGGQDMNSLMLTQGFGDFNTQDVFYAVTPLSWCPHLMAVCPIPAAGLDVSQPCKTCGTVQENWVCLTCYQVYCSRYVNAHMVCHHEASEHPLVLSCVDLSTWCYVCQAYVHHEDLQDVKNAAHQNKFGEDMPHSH
Experiment: Inhibition of mouse HDAC6 expressed in human HEK-293T cells using fluorescent peptide Ac-KGLGK(Ac)-MCA as substrate preincubated for 10 mins followed by substrate addition and measured after 1 hr by fluorogenic assay
Assay type: cell-based
Details: not given
Work on `O=C(NO)c1ccc(CN2CCN(C(c3ccccc3)c3ccccc3)CC2)cc1` yielded an IC50 of 0.11 µM.
`O=C(NO)c1ccc(CN2CCN(Cc3ccccc3)CC2)cc1` showed an IC50 of 0.26 µM.
With `O=C(NO)c1cccc(CN2CCN(C(c3ccccc3)c3ccccc3)CC2)c1` the IC50 was 6.6 µM.
With `O=C(NO)c1ccc(CCN2CCN(C(c3ccccc3)c3ccccc3)CC2)cc1` the IC50 was 0.33 µM.
With `O=C(NO)c1ccc(CCCCN2CCN(C(c3ccccc3)c3ccccc3)CC2)cc1` the IC50 was 0.43 µM.
Work on `O=C(NO)c1ccc(CCCN2CCN(C(c3ccccc3)c3ccccc3)CC2)cc1` yielded an IC50 of 0.58 µM.
In the case of `CC(c1ccccc1)N1CCN(Cc2ccc(C(=O)NO)cc2)CC1` (stereo not given), the IC50 is reported as 0.26 µM.
Work on `O=C(NO)c1ccccc1CN1CCN(C(c2ccccc2)c2ccccc2)CC1` yielded an IC50 of over 100 µM.

System: not listed separately
Experiment: Apparent permeability in human Caco-2 cells incubated for 2 hrs by LC-MS/MS analysis
Assay type: ADME, cell-based
Details: not given
Compound `O=C(NO)c1ccc(CN2CCN(C(c3ccccc3)c3ccccc3)CC2)cc1` has a Papp at 2 h of 17.1 ×10⁻⁶ cm/s.
`O=C(NO)c1ccc(CN2CCN(Cc3ccccc3)CC2)cc1` showed a Papp at 2 h of 11.6 ×10⁻⁶ cm/s.
`CC(c1ccccc1)N1CCN(Cc2ccc(C(=O)NO)cc2)CC1` (stereo not given) showed a Papp at 2 h of 10.9 ×10⁻⁶ cm/s.

Target: Histone deacetylase 4 (Homo sapiens, UniProt P56524)
Sequence (P56524 whole entry): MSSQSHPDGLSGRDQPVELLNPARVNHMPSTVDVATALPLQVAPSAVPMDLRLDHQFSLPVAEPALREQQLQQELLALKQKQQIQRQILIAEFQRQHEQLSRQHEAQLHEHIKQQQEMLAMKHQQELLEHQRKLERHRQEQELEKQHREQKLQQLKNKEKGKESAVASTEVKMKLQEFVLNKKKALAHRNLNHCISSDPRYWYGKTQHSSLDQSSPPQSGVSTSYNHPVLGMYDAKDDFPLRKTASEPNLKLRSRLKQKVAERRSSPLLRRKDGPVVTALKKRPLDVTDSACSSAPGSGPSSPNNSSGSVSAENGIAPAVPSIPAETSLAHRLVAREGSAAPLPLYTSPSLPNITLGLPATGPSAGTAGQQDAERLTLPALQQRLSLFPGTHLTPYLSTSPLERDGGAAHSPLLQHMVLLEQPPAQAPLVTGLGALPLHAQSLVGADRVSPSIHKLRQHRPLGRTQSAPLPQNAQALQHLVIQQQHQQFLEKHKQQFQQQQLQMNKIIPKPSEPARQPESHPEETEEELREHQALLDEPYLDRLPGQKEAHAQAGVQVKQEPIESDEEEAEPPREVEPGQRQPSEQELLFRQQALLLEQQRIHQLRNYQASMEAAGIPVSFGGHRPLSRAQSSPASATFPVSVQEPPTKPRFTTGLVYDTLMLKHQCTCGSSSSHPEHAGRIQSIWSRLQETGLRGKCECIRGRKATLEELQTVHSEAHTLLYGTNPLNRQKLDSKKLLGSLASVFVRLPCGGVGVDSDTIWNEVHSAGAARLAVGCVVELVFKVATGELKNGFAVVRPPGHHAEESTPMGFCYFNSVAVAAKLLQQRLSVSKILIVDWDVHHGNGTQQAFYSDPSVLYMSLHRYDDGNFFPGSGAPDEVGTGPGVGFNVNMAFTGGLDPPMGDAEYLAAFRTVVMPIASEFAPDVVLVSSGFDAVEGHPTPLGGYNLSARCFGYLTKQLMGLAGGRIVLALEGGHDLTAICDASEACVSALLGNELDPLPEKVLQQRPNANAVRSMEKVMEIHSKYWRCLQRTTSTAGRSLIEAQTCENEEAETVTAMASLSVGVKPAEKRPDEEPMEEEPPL
Experiment: Inhibition of human HDAC4 using fluorescent peptide Boc-Lys(trifluoroacetyl)-AMC as substrate preincubated for 10 mins followed by substrate addition and measured after 30 mins by fluorogenic assay
Details: not given
`O=C(NO)c1ccc(CN2CCN(C(c3ccccc3)c3ccccc3)CC2)cc1` gave an IC50 of 4.4 µM.
`O=C(NO)c1ccc(CN2CCN(Cc3ccccc3)CC2)cc1` gave an IC50 of 9.2 µM.
With `O=C(NO)c1cccc(CN2CCN(C(c3ccccc3)c3ccccc3)CC2)c1` the IC50 was over 100 µM.
`O=C(NO)c1ccc(CCN2CCN(C(c3ccccc3)c3ccccc3)CC2)cc1` gave an IC50 of 3 µM.
For `O=C(NO)c1ccc(CCCCN2CCN(C(c3ccccc3)c3ccccc3)CC2)cc1`, the IC50 was 5 µM.
With `O=C(NO)c1ccc(CCCN2CCN(C(c3ccccc3)c3ccccc3)CC2)cc1` the IC50 was 1.9 µM.
Work on `CC(c1ccccc1)N1CCN(Cc2ccc(C(=O)NO)cc2)CC1` (stereo not given) yielded an IC50 of 12.3 µM.
`O=C(NO)c1ccccc1CN1CCN(C(c2ccccc2)c2ccccc2)CC1` gave an IC50 of over 100 µM.

System: not listed separately
Experiment: Metabolic stability in human liver microsomes assessed as parent compound remaining at 500 uM measured at 60 mins by LC-MS/MS analysis
Assay type: ADME, Microsome
Details: read-out: Stability
In the case of `O=C(NO)c1ccc(CN2CCN(C(c3ccccc3)c3ccccc3)CC2)cc1`, the remaining at 1 h is reported as 62%.
`O=C(NO)c1ccc(CN2CCN(Cc3ccccc3)CC2)cc1` showed a remaining at 1 h of 73%.
`CC(c1ccccc1)N1CCN(Cc2ccc(C(=O)NO)cc2)CC1` (stereo not given) gave a remaining at 1 h of 63%.

Target: Histone deacetylase 1 (Homo sapiens, UniProt Q13547)
Sequence (Q13547 whole entry): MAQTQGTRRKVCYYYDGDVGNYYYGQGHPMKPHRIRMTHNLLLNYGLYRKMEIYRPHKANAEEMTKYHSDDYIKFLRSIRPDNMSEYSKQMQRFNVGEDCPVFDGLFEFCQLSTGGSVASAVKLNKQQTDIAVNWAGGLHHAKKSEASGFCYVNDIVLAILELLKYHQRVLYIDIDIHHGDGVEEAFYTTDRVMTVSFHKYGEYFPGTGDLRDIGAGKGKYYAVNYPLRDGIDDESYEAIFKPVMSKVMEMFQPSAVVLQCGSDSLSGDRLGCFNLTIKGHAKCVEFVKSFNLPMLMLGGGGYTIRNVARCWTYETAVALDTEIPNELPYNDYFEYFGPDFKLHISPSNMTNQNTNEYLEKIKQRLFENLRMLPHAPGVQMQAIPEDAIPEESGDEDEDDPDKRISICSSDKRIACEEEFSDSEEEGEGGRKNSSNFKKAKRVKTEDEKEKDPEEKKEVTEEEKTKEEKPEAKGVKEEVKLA
Experiment: Inhibition of human HDAC1 expressed in human HEK-293T cells using fluorescent peptide RHKKAc as substrate preincubated for 10 mins followed by substrate addition and measured after 1 hr by fluorogenic assay
Details: not given
With `O=C(NO)c1ccc(CN2CCN(C(c3ccccc3)c3ccccc3)CC2)cc1` the IC50 was 4.4 µM.
Work on `O=C(NO)c1ccc(CN2CCN(Cc3ccccc3)CC2)cc1` yielded an IC50 of 10.4 µM.
For `O=C(NO)c1cccc(CN2CCN(C(c3ccccc3)c3ccccc3)CC2)c1`, the IC50 was 46.6 µM.
Work on `O=C(NO)c1ccc(CCN2CCN(C(c3ccccc3)c3ccccc3)CC2)cc1` yielded an IC50 of 4.8 µM.
Work on `O=C(NO)c1ccc(CCCCN2CCN(C(c3ccccc3)c3ccccc3)CC2)cc1` yielded an IC50 of 5.5 µM.
In the case of `O=C(NO)c1ccc(CCCN2CCN(C(c3ccccc3)c3ccccc3)CC2)cc1`, the IC50 is reported as 3.8 µM.
`CC(c1ccccc1)N1CCN(Cc2ccc(C(=O)NO)cc2)CC1` (stereo not given) showed an IC50 of 6.7 µM.
Work on `O=C(NO)c1ccccc1CN1CCN(C(c2ccccc2)c2ccccc2)CC1` yielded an IC50 of over 100 µM.

System: not listed separately
Experiment: Lipophilicity, logD of compound at pH 7.4 measured after 20 mins by UPLC analysis
Assay type: physicochemical
Details: buffer
In the case of `O=C(NO)c1ccc(CN2CCN(C(c3ccccc3)c3ccccc3)CC2)cc1`, the logD at 20 min is reported as 3.8.
`O=C(NO)c1ccc(CN2CCN(Cc3ccccc3)CC2)cc1` showed a logD at 20 min of 1.9.
`CC(c1ccccc1)N1CCN(Cc2ccc(C(=O)NO)cc2)CC1` (stereo not given) gave a logD at 20 min of 2.1.

System: Mus musculus
Experiment: Antidepressant activity in restraint-stressed C57BL/6J mouse model assessed as reduction in immobility time at 10 mg/kg, ip measured at 14 mins relative to control (Rvb= 569.6 +/- 27.6 sec)
Assay type: functional
Details: not given
With `O=C(NO)c1ccc(CN2CCN(C(c3ccccc3)c3ccccc3)CC2)cc1` the Time was 410.7 s.
Compound `O=C(NO)c1ccc(CN2CCN(Cc3ccccc3)CC2)cc1` has a Time of 507.3 s.
With `CC(c1ccccc1)N1CCN(Cc2ccc(C(=O)NO)cc2)CC1` (stereo not given) the Time was 453 s.

System: Mus musculus
Experiment: Antidepressant activity in restraint-stressed C57BL/6J mouse model assessed as increase in acetylated alpha tubulin level in brain at 10 mg/kg, ip measured after 15 mins
Assay type: functional, organism-based
Details: not given
In the case of `CC(c1ccccc1)N1CCN(Cc2ccc(C(=O)NO)cc2)CC1` (stereo not given), the Activity is reported as “Active”.

System: Mus musculus
Experiment: Antidepressant activity in restraint-stressed C57BL/6J mouse model assessed as reduction in immobility time at 20 mg/kg, ip measured at 14 mins relative to control (Rvb= 569.6 +/- 27.6 sec)
Assay type: functional
Details: not given
`CNCCC(Oc1ccc(C(F)(F)F)cc1)c1ccccc1` (stereo not given) [FLUOXETINE] showed a Time of 405.5 s.

Species on record: Homo sapiens
Experiment: Selectivity ratio of IC50 for inhibition of human HDAC1 expressed in human HEK-293T cells using fluorescent peptide RHKKAc as substrate to IC50 for inhibition of mouse HDAC6 expressed in human HEK-293T cells using fluorescent peptide Ac-KGLGK(Ac)-MCA as substrate
Assay type: cell-based
Details: not given
`O=C(NO)c1ccc(CN2CCN(C(c3ccccc3)c3ccccc3)CC2)cc1` showed a Ratio IC50 of 40.
`O=C(NO)c1ccc(CN2CCN(Cc3ccccc3)CC2)cc1` gave a Ratio IC50 of 40.
`O=C(NO)c1cccc(CN2CCN(C(c3ccccc3)c3ccccc3)CC2)c1` showed a Ratio IC50 of 7.
In the case of `O=C(NO)c1ccc(CCN2CCN(C(c3ccccc3)c3ccccc3)CC2)cc1`, the Ratio IC50 is reported as 15.
With `O=C(NO)c1ccc(CCCCN2CCN(C(c3ccccc3)c3ccccc3)CC2)cc1` the Ratio IC50 was 13.
Compound `O=C(NO)c1ccc(CCCN2CCN(C(c3ccccc3)c3ccccc3)CC2)cc1` has a Ratio IC50 of 7.
With `CC(c1ccccc1)N1CCN(Cc2ccc(C(=O)NO)cc2)CC1` (stereo not given) the Ratio IC50 was 26.

System: not listed separately
Experiment: Metabolic stability in mouse liver microsomes assessed as parent compound remaining at 500 uM measured at 60 mins by LC-MS/MS analysis
Assay type: ADME, Microsome
Details: read-out: Stability
For `O=C(NO)c1ccc(CN2CCN(C(c3ccccc3)c3ccccc3)CC2)cc1`, the remaining at 1 h, 500 µM was 1%.
In the case of `O=C(NO)c1ccc(CN2CCN(Cc3ccccc3)CC2)cc1`, the remaining at 1 h, 500 µM is reported as 80%.
In the case of `CC(c1ccccc1)N1CCN(Cc2ccc(C(=O)NO)cc2)CC1` (stereo not given), the remaining at 1 h, 500 µM is reported as 67%.

Species on record: Homo sapiens
Experiment: Selectivity ratio of IC50 for inhibition of human HDAC4 using fluorescent peptide Boc-Lys(trifluoroacetyl)-AMC as substrate to IC50 for inhibition of mouse HDAC6 expressed in human HEK-293T cells using fluorescent peptide Ac-KGLGK(Ac)-MCA as substrate
Details: not given
`O=C(NO)c1ccc(CN2CCN(C(c3ccccc3)c3ccccc3)CC2)cc1` showed a Ratio IC50 of 40.
Compound `O=C(NO)c1ccc(CN2CCN(Cc3ccccc3)CC2)cc1` has a Ratio IC50 of 35.
In the case of `O=C(NO)c1ccc(CCN2CCN(C(c3ccccc3)c3ccccc3)CC2)cc1`, the Ratio IC50 is reported as 9.
For `O=C(NO)c1ccc(CCCCN2CCN(C(c3ccccc3)c3ccccc3)CC2)cc1`, the Ratio IC50 was 12.
Work on `O=C(NO)c1ccc(CCCN2CCN(C(c3ccccc3)c3ccccc3)CC2)cc1` yielded a Ratio IC50 of 3.
`CC(c1ccccc1)N1CCN(Cc2ccc(C(=O)NO)cc2)CC1` (stereo not given) showed a Ratio IC50 of 47.

System: not listed separately
Experiment: Brain to plasma ratio in C57BL/6J mouse at 10 mg/kg, iv measured after 45 mins by LC-MS/MS analysis
Assay type: ADME, organism-based
Details: brain and plasma, read-out: BPR
`O=C(NO)c1ccc(CN2CCN(C(c3ccccc3)c3ccccc3)CC2)cc1` gave a Kp at 0.75 h of 7.91.
Compound `O=C(NO)c1ccc(CN2CCN(Cc3ccccc3)CC2)cc1` has a Kp at 0.75 h of 4.37.
`CC(c1ccccc1)N1CCN(Cc2ccc(C(=O)NO)cc2)CC1` (stereo not given) gave a Kp at 0.75 h of 6.73.

Target: Voltage-gated inwardly rectifying potassium channel KCNH2 (Homo sapiens, UniProt Q12809)
Sequence (Q12809 whole entry): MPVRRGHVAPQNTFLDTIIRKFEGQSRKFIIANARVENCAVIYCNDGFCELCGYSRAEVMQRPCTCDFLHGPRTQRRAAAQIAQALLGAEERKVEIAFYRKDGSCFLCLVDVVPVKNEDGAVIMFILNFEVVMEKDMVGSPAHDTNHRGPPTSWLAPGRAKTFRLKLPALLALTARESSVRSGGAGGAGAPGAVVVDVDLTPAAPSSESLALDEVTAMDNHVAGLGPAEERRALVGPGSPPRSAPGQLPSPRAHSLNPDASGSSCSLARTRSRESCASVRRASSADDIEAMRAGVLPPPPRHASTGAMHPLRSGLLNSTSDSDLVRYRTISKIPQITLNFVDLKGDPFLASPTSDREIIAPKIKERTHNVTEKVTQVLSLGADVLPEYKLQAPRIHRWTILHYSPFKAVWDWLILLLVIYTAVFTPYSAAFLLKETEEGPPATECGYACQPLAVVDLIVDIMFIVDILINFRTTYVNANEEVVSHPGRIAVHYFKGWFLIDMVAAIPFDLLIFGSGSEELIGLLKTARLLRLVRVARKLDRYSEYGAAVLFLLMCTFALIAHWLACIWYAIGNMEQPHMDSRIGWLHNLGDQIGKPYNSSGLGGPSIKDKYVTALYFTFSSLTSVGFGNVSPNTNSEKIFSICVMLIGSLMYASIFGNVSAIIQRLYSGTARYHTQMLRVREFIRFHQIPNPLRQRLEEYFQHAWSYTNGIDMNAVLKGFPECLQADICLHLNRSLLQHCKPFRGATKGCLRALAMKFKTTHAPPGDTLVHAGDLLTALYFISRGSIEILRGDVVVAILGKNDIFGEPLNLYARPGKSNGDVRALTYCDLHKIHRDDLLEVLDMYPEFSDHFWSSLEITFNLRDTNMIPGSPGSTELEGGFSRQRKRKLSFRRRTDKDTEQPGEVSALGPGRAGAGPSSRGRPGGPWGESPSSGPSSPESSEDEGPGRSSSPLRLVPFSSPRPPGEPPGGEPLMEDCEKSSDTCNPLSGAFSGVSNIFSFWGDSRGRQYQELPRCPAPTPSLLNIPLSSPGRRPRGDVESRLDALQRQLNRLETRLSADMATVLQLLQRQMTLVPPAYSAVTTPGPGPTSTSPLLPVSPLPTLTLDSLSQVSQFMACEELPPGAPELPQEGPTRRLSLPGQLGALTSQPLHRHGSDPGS
Experiment: Inhibition of human ERG potassium channel by fluorescence polarization assay
Assay type: toxicity
Details: not given
With `O=C(NO)c1ccc(CN2CCN(C(c3ccccc3)c3ccccc3)CC2)cc1` the IC50 was 0.66 µM.
`O=C(NO)c1ccc(CN2CCN(Cc3ccccc3)CC2)cc1` showed an IC50 of 73.1 µM.
For `CC(c1ccccc1)N1CCN(Cc2ccc(C(=O)NO)cc2)CC1` (stereo not given), the IC50 was 106 µM.
